# Patent US8263565B2, “Nanoemulsion comprising metabolites of ginseng saponin as an active component and a method for preparing the same, and a skin-care composition for anti-aging containing the same” (Amorepacific Corporation, priority 2002, dated 2012)
# Tested on: Guinea pig's skin
# Test: Skin penetration with Frantz cell, HPLC determination
# Assay type: in vitro ADME
# Procedure: Skin penetration was evaluated for Guinea pig's skin with Frantz cell. Before test, abdominal part, a piece of skin as large as 1 cm^2 square was excised. The excised skin was mounted on a Frantz cell with the diameter of 0.9 cm and fixed with clamp. 0.5 ml of test sample (in case of Examples 1˜9 and C. Examples 1˜6, 0.05 ml of sample and distilled water; and in case of Formulations 1˜30 and C. Formulations 1˜15, 0.5 ml of sample only) was placed on one side of skin (donor side). The other side (receiver side) was filled with mixture of distilled water and ethanol (4:1 weight ratio). Test was performed at 32° C., which is skin temperature. Test solvent was sampled at predetermined time intervals from the receiver side, and the amounts of penetrated compound K, ginsenoside F1 and compound Y were determined by HPLC system. The data were indicated in penetrated amount per applied concentration (μg/cm^2/wt %).
# In case of purified ginseng saponin, the amount of penetrated saponin was determined. Also, in case of Bio GF1K, the amounts of penetrated compound K, ginsenoside F1 and compound Y were determined and total penetrated amounts were calculated by sum of each peak.
# <HPLC Analytic Condition> • Column: C18 (ODS) • Solvent Flow: 1 ml/min • Detection UV: 203 nm • Sample test concentration 5 mg/ml • Sample injection amount: 10 μg • Eluent: Gradient condition • A: Acetonitrile/D.I. water=15/85 • B: Acetonitrile/D.I. water=80/20
# <Solvent Gradient Condition>
row,Structure (SMILES),skin penetration (comparison in words)
1,"CC(C)=CCC[C@](C)(O[C@@H]1O[C@H](CO[C@@H]2OC[C@H](O)[C@H](O)[C@H]2O)[C@@H](O)[C@H](O)[C@H]1O)[C@H]1CC[C@]2(C)[C@@H]1[C@H](O)C[C@@H]1[C@@]3(C)CC[C@H](O)C(C)(C)[C@@H]3CC[C@]12C [compound Y, 20-O-[α-L-arabinopyranosyl(1→6)-β-D-glucopyranosyl]-20(S)-protopanaxadiol]",superior effects on skin penetration to purified ginseng saponin
2,"CC(C)=CCC[C@](C)(O[C@@H]1O[C@H](CO)[C@@H](O)[C@H](O)[C@H]1O)[C@H]1CC[C@]2(C)[C@@H]1[C@H](O)C[C@@H]1[C@@]3(C)CC[C@H](O)C(C)(C)[C@@H]3CC[C@]12C [compound K, 20-O-β-D-glucopyranosyl-20(S)-protopanaxadiol]",superior effects on skin penetration to purified ginseng saponin
3,"CC(C)=CCC[C@](C)(O[C@@H]1O[C@H](CO)[C@@H](O)[C@H](O)[C@H]1O)[C@H]1CC[C@]2(C)[C@@H]1[C@H](O)C[C@@H]1[C@@]3(C)CC[C@H](O)C(C)(C)[C@@H]3[C@@H](O)C[C@]12C [ginsenoside F1, 20-O-β-D-glucopyranosyl-20(S)-protopanaxatriol]",superior effects on skin penetration to purified ginseng saponin
